In patent EP0908457B1, “3-(1,2-benzisothiazol- and isoxazol-5-Y1)-2,4(1H,3H)-pyrimidinedione or thione and 3-(1,2-benzisothiazol- and isoxazol-5-y1)-4(3H)-pyrimidinone or thione herbicidal agents” (BASF AKTIENGESELLSCHAFT, priority 1997, dated 1999):

How the values were obtained:
[1] = system: Monochoria vaginalis, Presl.; test: Preemergence weed control under flooded paddy conditions, MOOVA (Monochoria); format: in vivo; conditions: flooded paddy; for MOOVA herbicidal rating / herbicidal effect rating, MOOVA: preemergence, rated three to four weeks after treatment; for MOOVA: preemergence weeds, herbicidal effect rating 0-9, three to four weeks after treatment; on herbicidal effect rating, MOOVA: meaning of each grade not given here
[2] = system: Cyperus serotinus, Rottb.; test: Preemergence weed control under flooded paddy conditions, CYPSE (Flatsedge); format: in vivo; conditions: for CYPSE: preemergence weeds, herbicidal effect rating 0-9, three to four weeks after treatment; on herbicidal effect rating, CYPSE: meaning of each grade not given here
Cyperus iria = test: Preemergence weed control under flooded paddy conditions, CYPIR (Rice Flatsedge); format: in vivo; conditions: flooded paddy; for CYPIR herbicidal rating / herbicidal effect rating, CYPIR: preemergence, rated three to four weeks after treatment; for CYPIR: preemergence weeds, herbicidal effect rating 0-9, three to four weeks after treatment; on herbicidal effect rating, CYPIR: meaning of each grade not given here
[3] = system: Echinochloa oryzoides (Ard.) Fritsch.; test: Preemergence weed control under flooded paddy conditions, ECHORC (Watergrass (Calif.)); format: in vivo; conditions: flooded paddy; for ECHORC herbicidal rating / herbicidal effect rating, ECHORC: preemergence, rated three to four weeks after treatment; for ECHORC: preemergence weeds, herbicidal effect rating 0-9, three to four weeks after treatment; on herbicidal effect rating, ECHORC: meaning of each grade not given here
[4] = system: Oryza sativa, (L.) Tebonnet; test: Rice tolerance to post-transplant applications under flooded paddy conditions (Example 187), ORYSAT (Rice, Tebonnet); conditions: for ORYSAT herbicidal rating (rice tolerance) / herbicidal effect rating ORYSAT: rated three to four weeks after treatment; for ORYSAT: herbicidal effect rating 0-9, three to four weeks after treatment
Sagittaria pygmaea, L. = test: Preemergence weed control under flooded paddy conditions, SAGPY (Arrowhead (Pygmaea)); format: in vivo; conditions: flooded paddy; for SAGPY herbicidal rating / herbicidal effect rating, SAGPY: preemergence, rated three to four weeks after treatment; for SAGPY: preemergence weeds, herbicidal effect rating 0-9, three to four weeks after treatment; on herbicidal effect rating, SAGPY: meaning of each grade not given here

Cn1c(C(F)(F)F)cc(=O)n(-c2ccc3snc(C(C)(C)C(=O)OCc4ccco4)c3c2)c1=O [Example 487, 1,2-Benzisothiazole-3-acetic acid, 5-[3,6-dihydro-3-methyl-2,6-dioxo-4-(trifluoromethyl)-1(2H)-pyrimidinyl]-alpha,alpha-dimethyl-, furfuryl ester]
MOOVA herbicidal rating ([1]; 0.0320 kg/ha): 7.0 | MOOVA herbicidal rating ([1]; 0.0620 kg/ha): 9.0 | MOOVA herbicidal rating ([1]; 0.1250 kg/ha): 9.0 | MOOVA herbicidal rating ([1]; 0.2500 kg/ha): 9.0 | CYPSE herbicidal rating ([2]; 0.2500 kg/ha, preemergence, rated three to four weeks after treatment): 3.0 | CYPIR herbicidal rating (Cyperus iria; 0.0320 kg/ha): 4.0 | CYPIR herbicidal rating (Cyperus iria; 0.0620 kg/ha): 5.0 | CYPIR herbicidal rating (Cyperus iria; 0.1250 kg/ha): 6.0 | CYPIR herbicidal rating (Cyperus iria; 0.2500 kg/ha): 9.0 | ECHORC herbicidal rating ([3]; 0.0320 kg/ha): 6.0 | ECHORC herbicidal rating ([3]; 0.0620 kg/ha): 7.0 | ECHORC herbicidal rating ([3]; 0.1250 kg/ha): 7.0 | ECHORC herbicidal rating ([3]; 0.2500 kg/ha): 9.0 | ORYSAT herbicidal rating (rice tolerance) ([4]; 0.0320 kg/ha): 2.0 | ORYSAT herbicidal rating (rice tolerance) ([4]; 0.0620 kg/ha): 3.0 | ORYSAT herbicidal rating (rice tolerance) ([4]; 0.1250 kg/ha): 6.0 | ORYSAT herbicidal rating (rice tolerance) ([4]; 0.2500 kg/ha): 7.0 | SAGPY herbicidal rating (Sagittaria pygmaea, L.; 0.0320 kg/ha): 4.0 | SAGPY herbicidal rating (Sagittaria pygmaea, L.; 0.0620 kg/ha): 5.0 | SAGPY herbicidal rating (Sagittaria pygmaea, L.; 0.1250 kg/ha): 6.0 | SAGPY herbicidal rating (Sagittaria pygmaea, L.; 0.2500 kg/ha): 7.0

Cc1ccc(OCC(=O)O)c(-c2noc3cc(F)c(-n4c(=O)cc(C(F)(F)F)n(C)c4=O)cc23)c1 [Example 425, Acetic acid, {{2-{5-[3,6-dihydro-3-methyl-2,6-dioxo-4-(trifluoromethyl)-1(2H)-pyrimidinyl]-6-fluoro-1,2-benzisoxazol-3-yl}-p-tolyl}oxy}-]
MOOVA ([1]; 0.0320 kg/ha): 6.0 | MOOVA ([1]; 0.0620 kg/ha): 7.0 | MOOVA ([1]; 0.1250 kg/ha): 9.0 | MOOVA ([1]; 0.2500 kg/ha): 9.0 | CYPSE ([2]; 0.0320 kg/ha): 0.0 | CYPSE ([2]; 0.0620 kg/ha): 3.0 | CYPSE ([2]; 0.1250 kg/ha): 3.0 | CYPSE ([2]; 0.2500 kg/ha): 3.0 | CYPIR (Cyperus iria; 0.0320 kg/ha): 0.0 | CYPIR (Cyperus iria; 0.0620 kg/ha): 0.0 | CYPIR (Cyperus iria; 0.1250 kg/ha): 6.0 | CYPIR (Cyperus iria; 0.2500 kg/ha): 9.0 | ECHORC ([3]; 0.0320 kg/ha): 6.0 | ECHORC ([3]; 0.0620 kg/ha): 9.0 | ECHORC ([3]; 0.1250 kg/ha): 9.0 | ECHORC ([3]; 0.2500 kg/ha): 9.0 | ORYSAT ([4]; 0.0320 kg/ha): 4.0 | ORYSAT ([4]; 0.0620 kg/ha): 6.0 | ORYSAT ([4]; 0.1250 kg/ha): 7.0 | ORYSAT ([4]; 0.2500 kg/ha): 8.0 | SAGPY (Sagittaria pygmaea, L.; 0.0320 kg/ha): 0.0 | SAGPY (Sagittaria pygmaea, L.; 0.0620 kg/ha): 0.0 | SAGPY (Sagittaria pygmaea, L.; 0.1250 kg/ha): 3.0 | SAGPY (Sagittaria pygmaea, L.; 0.2500 kg/ha): 4.0

CCCCS(=O)(=O)NC(=O)COc1ccccc1-c1nsc2ccc(-n3c(=O)cc(C(F)(F)F)n(C)c3=O)cc12 [Example 574, Acetamide, N-(butylsulfonyl)-2-{o-{5-[3,6-dihydro-3-methyl-2,6-dioxo-4-(trifluoromethyl)-1(2H)-pyrimidinyl]-1,2-benzisothiazol-3-yl}-phenoxy}-]
herbicidal effect rating, MOOVA ([1]; Rate 0.0320 kg/ha): 9.0 | herbicidal effect rating, MOOVA ([1]; Rate 0.0620 kg/ha): 9.0 | herbicidal effect rating, MOOVA ([1]; Rate 0.1250 kg/ha): 9.0 | herbicidal effect rating, MOOVA ([1]; Rate 0.2500 kg/ha): 9.0 | herbicidal effect rating, CYPSE ([2]; Rate 0.0320 kg/ha, preemergence, rated three to four weeks after treatment): 0.0 | herbicidal effect rating, CYPSE ([2]; Rate 0.0620 kg/ha, preemergence, rated three to four weeks after treatment): 2.0 | herbicidal effect rating, CYPSE ([2]; Rate 0.1250 kg/ha, preemergence, rated three to four weeks after treatment): 4.5 | herbicidal effect rating, CYPSE ([2]; Rate 0.2500 kg/ha, preemergence, rated three to four weeks after treatment): 6.5 | herbicidal effect rating, CYPIR (Cyperus iria; Rate 0.0320 kg/ha): 2.0 | herbicidal effect rating, CYPIR (Cyperus iria; Rate 0.0620 kg/ha): 5.5 | herbicidal effect rating, CYPIR (Cyperus iria; Rate 0.1250 kg/ha): 6.0 | herbicidal effect rating, CYPIR (Cyperus iria; Rate 0.2500 kg/ha): 7.0 | herbicidal effect rating, ECHORC ([3]; Rate 0.0320 kg/ha): 4.0 | herbicidal effect rating, ECHORC ([3]; Rate 0.0620 kg/ha): 6.5 | herbicidal effect rating, ECHORC ([3]; Rate 0.1250 kg/ha): 8.5 | herbicidal effect rating, ECHORC ([3]; Rate 0.2500 kg/ha): 9.0 | herbicidal effect rating ORYSAT ([4]; Rate 0.0320 kg/ha): 3.0 | herbicidal effect rating ORYSAT ([4]; Rate 0.0620 kg/ha): 4.5 | herbicidal effect rating ORYSAT ([4]; Rate 0.1250 kg/ha): 6.5 | herbicidal effect rating ORYSAT ([4]; Rate 0.2500 kg/ha): 8.0 | herbicidal effect rating, SAGPY (Sagittaria pygmaea, L.; Rate 0.0320 kg/ha): 0.0 | herbicidal effect rating, SAGPY (Sagittaria pygmaea, L.; Rate 0.0620 kg/ha): 1.0 | herbicidal effect rating, SAGPY (Sagittaria pygmaea, L.; Rate 0.1250 kg/ha): 2.0 | herbicidal effect rating, SAGPY (Sagittaria pygmaea, L.; Rate 0.2500 kg/ha): 6.0
